The nature of experiment [1]: Inhibition of IL1-beta induced MMP3 expression levels in human chondrocytes assessed as MMP3 levels incubated for 2hrs followed by IL1-beta stimulation and measured after overnight incubation by LANCE assay. In kind it is functional, cell-based. Conditions: Chondrocyte. For orientation: In TR-FRET formats the signal depends on donor and acceptor labels being close together.

Experiment [2] is described as follows: Effect on Wnt signaling pathway in human SW480 cells harbouring TCF/LEF luciferase reporter gene and SP5-Luc reporter gene incubated for 36 to 48 hrs by luminescence assay. In kind it is cell-based.
In experiment [3] the target is Dual specificity tyrosine-phosphorylation-regulated kinase 1A (Homo sapiens, UniProt Q13627). Nature of the experiment: Inhibition of recombinant DYRK1A (unknown origin) using Ser/Thr 18 peptide as substrate incubated for 1 hr in presence of ATP by FRET assay.
Experiment [4] in a line: Induction of chondrogenesis in human MSC assessed as incubated for 6 days by rhodamine B and Nile red staining based imaging analysis. In kind it is functional. Conditions: bmmsc.

Usually EC50 stands for the concentration at which the effect is half-maximal.

Take `CN1CCN(c2cc(C(=O)Nc3cc4c(Cl)c(-c5cnn(C)c5)ccc4cn3)ccn2)CC1`: in experiment [1], the EC50 stood at 898 nM.

`CN(C)CCOc1cncc(-c2cnc3[nH]nc(-c4nc5c(-c6cccc(F)c6)nccc5[nH]4)c3c2)c1`: the EC50 was found to be 253 nM in experiment [2] and 5 nM in experiment [3].

`Cc1n[nH]c2ccc(-c3cncc(N[C@H]4CC[C@H](O)CC4)n3)cc12`: the EC50 in experiment [2] was found to be 95 nM; in experiment [3], 1 nM.

As to `CCNCc1cncc(-c2cnc3[nH]nc(-c4cc5c(-c6cc(F)cc(CNS(C)(=O)=O)c6)nccc5[nH]4)c3c2)c1`, the EC50 in experiment [2] is more than 10000 nM; in experiment [3], 30 nM; in experiment [4], 300 nM.

The compound `CN1CCC(n2cc(C(=O)Nc3cc4cc(-c5cnn(C)c5)ccc4cn3)cn2)CC1` displayed an EC50 in experiment [2] of 14 nM.

Turning to `CN(C)CCN(C)c1ccc(NC(=O)c2n[nH]c3ccc(-c4cncc(CN5CCCCC5)c4)cc23)cn1`, the EC50 in experiment [2] amounted to 65 nM; in experiment [3] it was 1 nM.

For the compound `O=C(Nc1cc2cc(-c3cncc(NC4CCNCC4)n3)ccc2cn1)C1CC(F)(F)C1`, it took 381 nM to reach a half-maximal effect in experiment [2] (EC50).

With `Cc1cc(C(=O)Nc2cc3cc(-c4cnn(C)c4)ccc3cn2)cc(N2CCN(C)CC2)n1`, the EC50 in experiment [1] is 3000 nM.

Take `CC(C)CC(=O)Nc1cncc(-c2cc3c(-c4cc5c(-c6cc(F)cc(CNS(C)(=O)=O)c6)cncc5[nH]4)n[nH]c3cn2)c1`: the EC50 was more than 10000 nM in experiment [2] and 99 nM in experiment [3].

On to `O=C(Nc1cnccc1NC(=O)C1CC1)c1n[nH]c2ccc(-c3cccnc3)cc12`, for which the EC50 in experiment [2] amounted to 68 nM; in experiment [3], 6 nM.

Turning to `CN1CCN(c2ccc(NC(=O)c3n[nH]c4ccc(-c5cncc(NC(=O)C6CC6)c5)cc34)cn2)CC1`, the EC50 in experiment [2] was 80 nM; in experiment [3], 1 nM.

Consider `Cn1cc(-c2ccc3cnc(NC(=O)c4ccc5c(c4)CNCC5)cc3c2)cn1`, for which the EC50 in experiment [1] was determined as 1630 nM.

As for `Cn1cc(-c2ccc3cnc(NC(=O)c4ccc5cnccc5c4)cc3c2)cn1`, in experiment [1], the EC50 was 3000 nM.

As to `CN(C)Cc1cncc(-c2cnc3[nH]nc(-c4nc5c(-c6ccsc6)cccc5[nH]4)c3c2)c1`, the EC50 in experiment [2] was determined as 32 nM; in experiment [3], 83 nM; in experiment [4] it was 300 nM.

Turning to `CS(=O)(=O)NCc1cc(F)cc(-c2nccc3[nH]c(-c4n[nH]c5ncc(-c6cncc(OCc7ccccc7)c6)cc45)cc23)c1`, the EC50 worked out at 3990 nM in experiment [2] and 97 nM in experiment [3].

Turning to `O=C(Nc1ccnnc1)c1n[nH]c2ccc(-c3cncc(CN4CCCCC4)c3)cc12`, the figures for the EC50 in experiment [2] and in experiment [3] were 40 nM and 1 nM, respectively.

For `O=C(Nc1ccc2c(c1)OCCO2)c1n[nH]c2ccc(-c3cncc(CN4CCCCC4)c3)cc12`, the half-maximal effective concentration (EC50) in experiment [2] was found to be 125 nM; in experiment [3], 3 nM.

Regarding `CC(C)CC(=O)Nc1cncc(-c2cnc3[nH]nc(-c4cc5c(-c6cc(F)cc(CNS(C)(=O)=O)c6)cncc5[nH]4)c3c2)c1`, the EC50 in experiment [2] was found to be 2510 nM; in experiment [3], 16 nM.

On to `Fc1cccc(-c2cncc3[nH]c(-c4n[nH]cc4C#Cc4cncc(OC5CCNCC5)c4)nc23)c1`, for which the EC50 in experiment [2] is 4640 nM; in experiment [3], 56 nM.

Regarding `O=C(Nc1cncc(-c2ccc3[nH]nc(-c4cc5c(-c6cccnc6)nccc5[nH]4)c3c2)c1)c1ccccc1`, the EC50 in experiment [2] amounted to 421 nM; in experiment [3] it was 19 nM.

Turning to `Cc1ncc(NC(=O)c2n[nH]c3ccc(-c4cnc(C)n4C)cc23)s1`, the EC50 in experiment [2] turned out to be 335 nM; in experiment [3], 4 nM.

Turning to `CN(C)Cc1ccc(C(=O)Nc2cc3cc(-c4cnn(C)c4)ccc3cn2)cc1`, in experiment [1], the EC50 came out at 47.4 nM.

As to `Cn1cncc1-c1ccc2cnc(NC(=O)c3ccnc(N4CCN(C5CC5)CC4)c3)cc2c1`, the EC50 in experiment [1] is 3000 nM.

On to `CN1CCN(c2cc(C(=O)Nc3cc4cc(-c5cnn(C)c5N)ccc4cn3)ccn2)CC1`, for which, in experiment [1], the concentration for a half-maximal effect (EC50) was determined as 11.5 nM.

In the case of `CN1CCCN(c2cc(C(=O)Nc3cc4cc(-c5cnn(C)c5)ccc4cn3)ccn2)CC1`, the EC50 in experiment [1] was determined as 3000 nM.

On to `O=C(Nc1ccc(-c2ccccc2)nc1)c1n[nH]c2ccc(-c3cncc(CN4CCCCC4)c3)cc12`, for which the EC50 was 101 nM in experiment [2] and 7 nM in experiment [3].

As for `Nc1cncc(-c2cnc3[nH]nc(-c4cc5c(-c6ccncc6)cncc5[nH]4)c3c2)c1`, the EC50 in experiment [2] was more than 10000 nM; in experiment [3] it was 3 nM.

As to `CC(C)CC(=O)Nc1cncc(-c2ccc3[nH]nc(-c4nc5c(N6CCN(C)CC6)cccc5[nH]4)c3c2)c1`, the EC50 came to 268 nM in experiment [2] and 5 nM in experiment [3].

For `CCNCc1cncc(-c2ccc3[nH]nc(-c4cc5cnccc5[nH]4)c3c2)c1`, the EC50 in experiment [2] stood at 1040 nM; in experiment [3], 3 nM; in experiment [4] it was 10 nM.

Regarding `CN1CCN(Cc2ccc(NC(=O)c3n[nH]c4ccc(-c5cccnc5)cc34)cn2)CC1`, the EC50 was 37 nM in experiment [2] and 1 nM in experiment [3].

As for `CN(C)C(=O)Nc1cncc(-c2ccc3[nH]nc(C(=O)Nc4cccnc4)c3c2)c1`, the EC50 in experiment [2] amounted to 176 nM; in experiment [3], 1 nM.

On to `CS(=O)(=O)NCc1cc(F)cc(-c2nccc3[nH]c(-c4n[nH]c5ncc(-c6cncc(NC(=O)C7CCC7)c6)cc45)cc23)c1`, for which the EC50 in experiment [2] was found to be 3640 nM; in experiment [3], 16 nM; in experiment [4], 300 nM.

`CC(C)Nc1cncc(-c2ccc3cnc(NC(=O)C4CCN(CCF)CC4)cc3c2)n1`: the EC50 in experiment [2] came out at 178 nM.

On to `O=C(Nc1cccnc1)c1n[nH]c2ccc(-c3cncc(NC(=O)N4CCOCC4)c3)cc12`, for which the EC50 came out at 1250 nM in experiment [2] and 2 nM in experiment [3].

On to `COc1cncc(-c2cc3c(-c4nc5c(-c6cccc(F)c6)cncc5[nH]4)n[nH]c3cn2)c1`, for which the EC50 in experiment [2] was found to be 31.3 nM; in experiment [3], 26 nM; in experiment [4], 300 nM.

Take `CNc1nc(NCc2ncccn2)c2c(-c3ccc4ncccc4c3)c[nH]c2n1`: the values for the EC50 in experiment [2] and in experiment [3] were 73.3 nM and 7 nM, respectively.

Take `O=C(Nc1ccc(N2CCC(O)CC2)nc1)c1n[nH]c2ccc(-c3cncc(CN4CCCCC4)c3)cc12`: the values for the EC50 in experiment [2] and in experiment [3] were 49 nM and 1 nM, respectively.

In the case of `CC(C)CC(=O)Nc1cncc(-c2cnc3[nH]nc(-c4cc5c(-c6cc(F)cc(CNS(C)(=O)=O)c6)nccc5[nH]4)c3c2)c1`, the EC50 in experiment [2] was determined as 1510 nM; in experiment [3], 19 nM; in experiment [4], 300 nM.

In the case of `O=C(Nc1cc2cc(-c3cncc(NCC4(F)CNC4)n3)ncc2cn1)C1CC1`, the response in experiment [2] was half-maximal at 383 nM (EC50).

Consider `CC(C)(C)C(=O)Nc1cncc(-c2ccc3[nH]nc(-c4nc5c(-c6ccc(F)cc6)cncc5[nH]4)c3c2)c1`, for which the EC50 in experiment [2] is 4 nM; in experiment [3], 55 nM; in experiment [4], 100 nM.

In experiment [2], `Cc1cc2[nH]nc(C(=O)Nc3ccc(CN4CCCC4)cc3)c2cc1-c1cccnc1` displayed an EC50 of 1090 nM.

In the case of `CCCC(=O)Nc1cncc(-c2cc3c(-c4nc5c(-c6cccc(F)c6)nccc5[nH]4)n[nH]c3cn2)c1`, the EC50 in experiment [2] was 18.8 nM; in experiment [3], 53 nM; in experiment [4], 10 nM.

Take `O=C(Nc1ccnnc1)c1n[nH]c2ccc(-c3cccnc3)cc12`: the figures for the EC50 in experiment [2] and in experiment [3] were 106 nM and 1 nM, respectively.

With `O=C(Nc1cnccn1)c1n[nH]c2ccc(-c3cncc(CN4CCCCC4)c3)cc12`, the concentration for a half-maximal effect (EC50) in experiment [2] is 289 nM; in experiment [3], 1 nM.

As for `CN(C)Cc1cncc(NC(=O)c2n[nH]c3ccc(-c4cncc(CN5CCCC5)c4)cc23)c1`, the EC50 is 330 nM in experiment [2] and 2 nM in experiment [3].
